Measurements from US5866346A (priority 1997, dated 1999).
Where two headings read alike, the source gives them in different places.

Experiments:
[1] = target: T1, XOR1 (rat opioid receptor-like novel receptor) (Rattus norvegicus, UniProt P35370); assay: Inhibition of forskolin-stimulated cyclic AMP increase in cells transiently transfected with XOR1; type: cell-based; settings: 5 μM ligand, 10 μM forskolin
T1 construct: expressed in transfected cells; host or cells: CHO-K1 and HEK-293 cells, transient calcium phosphate transfection
Description: FIGS. 4A and 4B. Inhibition of forskolin-stimulated cyclic AMP increase by dyn A-(1-13). CHO-K1 or HEK-293 cells transiently transfected with the XOR1 clone were treated with 10 μM forskolin with or without 5 μM dyn A-(1-13). The control cells were transfected with the plasmid vector and underwent the same treatment. Intracellular cyclic AMP content was determined using a radioimmunoassay kit (DuPont/NEN). Data are shown as mean ± S.E. (n=2). * indicates a significant-difference from the forskolin-only treated cells (Student's t-test, p<0.01).
Cell transfection and cyclic AMP assay--The CHO-K1 and HEK-293 cells were transiently transfected with either XOR1 (rat opioid receptor-like novel receptor) cDNA in pRc/CMV (Invitrogen) or vector only (as control) by calcium phosphate method as described by Chen et al., Mol. Cell Biol. 7:2745-2752 (1987). Three days after transfection, cells were harvested by trypsin treatment, washed and resuspended in serum-free medium. Cells were treated with ligands in the presence of 10 μM forskolin and 1 mM 3-iosbutyl-1-methylxanthine at 37° C. for 20 min. The reaction was terminated by adding 1/3 volume of 0.25M HCl. The mixture was boiled for 5 min and centrifuged at 14,000 g for 10 min. […] The cAMP in cells was determined by the nonacetylated method using the radioimmunoassay kit (DuPont/NEN) according to the manufacturer's instructions.

[2] = target: kappa opioid receptor (KOR) (Cavia porcellus, UniProt P41144); settings: read-out: KOR (Ki) Guinea pig (36); cited from earlier work
[3] = target: kappa opioid receptor (KOR) (Rattus norvegicus, UniProt P34975); settings: cited from earlier work
Chain of kappa opioid receptor (KOR) (Rattus norvegicus, UniProt P34975) (P34975 whole entry): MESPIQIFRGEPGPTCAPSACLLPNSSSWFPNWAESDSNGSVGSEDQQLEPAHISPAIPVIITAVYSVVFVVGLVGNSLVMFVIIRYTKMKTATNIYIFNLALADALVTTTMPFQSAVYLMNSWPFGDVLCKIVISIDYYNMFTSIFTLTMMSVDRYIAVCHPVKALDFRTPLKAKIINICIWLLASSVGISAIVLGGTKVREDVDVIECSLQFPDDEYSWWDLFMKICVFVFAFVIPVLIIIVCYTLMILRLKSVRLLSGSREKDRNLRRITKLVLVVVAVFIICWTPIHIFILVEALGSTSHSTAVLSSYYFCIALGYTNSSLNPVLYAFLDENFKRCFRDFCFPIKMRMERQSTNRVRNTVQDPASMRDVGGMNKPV

T1 sequence (P35370 whole entry): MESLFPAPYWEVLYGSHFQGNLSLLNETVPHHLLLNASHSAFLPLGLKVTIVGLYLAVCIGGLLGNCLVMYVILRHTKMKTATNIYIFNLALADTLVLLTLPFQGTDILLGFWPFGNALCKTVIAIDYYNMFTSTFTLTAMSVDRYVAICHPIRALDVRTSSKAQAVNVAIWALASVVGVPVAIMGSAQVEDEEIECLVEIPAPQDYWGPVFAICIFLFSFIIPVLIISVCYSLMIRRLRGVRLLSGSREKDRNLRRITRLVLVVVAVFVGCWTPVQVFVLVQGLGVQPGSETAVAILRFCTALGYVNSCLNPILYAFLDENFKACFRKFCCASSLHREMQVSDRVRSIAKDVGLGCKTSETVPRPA
Chain of kappa opioid receptor (KOR) (Cavia porcellus, UniProt P41144) (P41144 whole entry): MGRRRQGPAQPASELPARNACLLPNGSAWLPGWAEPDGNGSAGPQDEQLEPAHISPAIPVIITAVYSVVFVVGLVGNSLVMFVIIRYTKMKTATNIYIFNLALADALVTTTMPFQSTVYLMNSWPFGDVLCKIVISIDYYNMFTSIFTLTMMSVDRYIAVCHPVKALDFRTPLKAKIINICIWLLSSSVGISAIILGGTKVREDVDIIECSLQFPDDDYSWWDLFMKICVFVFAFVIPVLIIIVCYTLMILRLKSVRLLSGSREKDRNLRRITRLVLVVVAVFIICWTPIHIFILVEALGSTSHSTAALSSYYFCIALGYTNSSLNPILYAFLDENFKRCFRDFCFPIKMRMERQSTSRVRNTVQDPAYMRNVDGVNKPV

SMILES | inhibition of forskolin-stimulated cAMP increase ([1]; CHO-K1 cells) [%] | inhibition of forskolin-stimulated cAMP increase ([1]; HEK-293 cells) [%] | Ki [2] [nM] | Ki ([3]; read-out: KOR (Ki) Rat (34)) [nM] | Ki ([3]; read-out: KOR (Ki) Rat (27)) [nM] | Ki ([3]; read-out: KOR (Ki) Rat (33)) [nM]
CC[C@H](C)[C@H](NC(=O)[C@H](CCCNC(=N)N)NC(=O)[C@H](CCCNC(=N)N)NC(=O)[C@H](CC(C)C)NC(=O)[C@H](Cc1ccccc1)NC(=O)CNC(=O)CNC(=O)[C@@H](N)Cc1ccc(O)cc1)C(=O)N[C@@H](CCCNC(=N)N)C(=O)N1CCC[C@H]1C(=O)N[C@@H](CCCCN)C(=O)N[C@@H](CC(C)C)C(=O)N[C@@H](CCCCN)C(=O)O [dyn A-(1-13), dynorphin A (1-13)] | 51 | 35 | 0.71 | 0.12 | – | –
CC[C@H](C)[C@H](NC(=O)[C@H](CCCNC(=N)N)NC(=O)[C@H](CCCNC(=N)N)NC(=O)[C@H](CC(C)C)NC(=O)[C@H](Cc1ccccc1)NC(=O)CNC(=O)CNC(=O)[C@@H](N)Cc1ccc(O)cc1)C(=O)N[C@@H](CCCNC(=N)N)C(=O)N1CCC[C@H]1C(=O)N[C@@H](CCCCN)C(=O)N[C@@H](CC(C)C)C(=O)N[C@@H](CCCCN)C(=O)N[C@@H](Cc1c[nH]c2ccccc12)C(=O)N[C@@H](CC(=O)O)C(=O)N[C@@H](CC(N)=O)C(=O)N[C@@H](CCC(N)=O)C(=O)O [dyn A, dynorphin A] | – | – | 0.58 | 0.11 | 0.15 | 0.05
